From patent US6171808A, “Mutant luciferases” (priority 1995, dated 2001)

Columns and labels:
[1] = target: T1, Photinus pyralis luciferase double mutant 601aG1K, E270K + E354K, SEQ ID No 4 (Photinus pyralis, UniProt P08659, E270K/E354K); experiment: Km determination with respect to ATP, luminometric luciferase assay; type: biochemical; conditions: read-out: Km value with respect to ATP; 21° C., tricine pH7.8, 470 μM D-luciferin, 6.25 to 400 μM ATP
T1 construct: made in house; host or cells: E. coli JM109 (pPW601aG1K, pDR540-derived)
T1 sequence (P08659 whole entry E270K/E354K): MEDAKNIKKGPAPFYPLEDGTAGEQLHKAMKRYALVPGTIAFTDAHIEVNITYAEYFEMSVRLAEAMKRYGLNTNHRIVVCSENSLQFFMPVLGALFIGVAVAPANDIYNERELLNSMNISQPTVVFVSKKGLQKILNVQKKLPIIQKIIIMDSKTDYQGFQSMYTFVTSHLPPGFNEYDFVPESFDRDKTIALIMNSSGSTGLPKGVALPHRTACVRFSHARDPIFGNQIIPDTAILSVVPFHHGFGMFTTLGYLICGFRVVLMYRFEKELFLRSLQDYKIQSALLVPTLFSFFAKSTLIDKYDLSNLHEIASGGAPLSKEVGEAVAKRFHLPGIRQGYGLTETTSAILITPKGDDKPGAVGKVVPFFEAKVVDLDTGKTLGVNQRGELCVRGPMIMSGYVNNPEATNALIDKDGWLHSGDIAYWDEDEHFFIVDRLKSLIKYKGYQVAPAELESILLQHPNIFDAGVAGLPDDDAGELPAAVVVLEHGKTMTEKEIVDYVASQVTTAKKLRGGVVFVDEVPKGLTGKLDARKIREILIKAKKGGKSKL

[2] = target: Photinus pyralis luciferase variant 601aK, E354K (thermostable mutant 354 lysine) (Photinus pyralis, UniProt P08659, E354K); conditions: read-out: Km value with respect to ATP; 21° C., tricine pH7.8, 470 μM D-luciferin, 6.25 to 400 μM ATP
Chain of Photinus pyralis luciferase variant 601aK, E354K (thermostable mutant 354 lysine) (P08659 whole entry E354K): as the sequence (P08659 whole entry E270K/E354K) above, with K270E counted along it

[3] = target: T2, Photinus pyralis luciferase, recombinant wild-type (601a) (Photinus pyralis, UniProt P08659); experiment: Km determination with respect to ATP, luminometric luciferase assay; type: biochemical; conditions: 21° C., tricine pH7.8, 470 μM D-luciferin, 6.25 to 400 μM ATP
T2 construct: made in house; host or cells: E. coli JM109 (pPW601a, derived from pDR540 and the luc gene of pGEM-luc)
T2 sequence (P08659 whole entry): as the sequence (P08659 whole entry E270K/E354K) above, with K270E, K354E counted along it

[4] = target: T3, Photinus pyralis luciferase variant 601aG1, E270K (270 lysine Km change), SEQ ID No 2 with Xaa = lysine (Photinus pyralis, UniProt P08659, E270K); experiment: as above; type: biochemical; conditions: read-out: Km value with respect to ATP; 21° C., tricine pH7.8, 470 μM D-luciferin, 6.25 to 400 μM ATP
T3 construct: made in house; host or cells: E. coli BL21 (DE3) (pPW601G1)
T3 sequence (P08659 whole entry E270K): as the sequence (P08659 whole entry E270K/E354K) above, with K354E counted along it
From the text: The Km mutant was initially generated by hydroxylamine induced mutagenesis of the luc gene within pPW304 to provide plasmid 304 G1 bearing a single base change in the DNA sequence at 811 of SEQ ID No 1 resulting in an amino acid glutamate change to lysine at position 270. A 1.1 kb DNA fragment (BstE II/Stu I) was cloned from pPW304 and used to replace the corresponding fragment in pP601a to form pPW601G1, thus providing a luc gene encoding for luciferase without the four extra amino acids encoded by pPW304 (M not included from M-A-R-I-Q).

SMILES: Nc1ncnc2c1ncn2[C@@H]1O[C@H](COP(=O)(O)OP(=O)(O)OP(=O)(O)O)[C@@H](O)[C@H]1O [ATP, adenosine triphosphate]
- Km [1]: 25.2 µM
- Km [2]: 61.3 µM
- Km [3]: 66.1 µM
- Km [4]: 28.7 µM
